Several values for one entry are separate records, joined by “and”; a condition that tells them apart may be missing. Equal entries are not always repeated.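 The compound was tested at five concentrations on cells cultured in 96-well plates, with a 48-hour exposure period. GI50 marks 50% less growth. At the TGI there is no net growth.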

Some test systems named below: HCC-2998 colon; DLD-1 colon; SNB-19 CNS; RXF 393 renal; OVCAR-5 ovarian; SF-268 CNS; UACC-257 melanoma; M14 melanoma; HCT-15 colon; KM20L2 colon.
Holding throughout (test): DTP human tumour cell line panel, 48 h

In general, TGI refers to the concentration giving total growth inhibition. A lower TGI goes with greater sensitivity of the cells. Take `ClC[Si]12OCCN(CCO1)CCO2`: the TGI in the assay with HCC-2998 colon, in the assay on DLD-1 colon, with SNB-19 CNS, in the assay with RXF 393 renal, in the assay on OVCAR-5 ovarian and in the assay with SF-268 CNS was greater than 100 µM in each case. Moreover, the TGI in the assay with UACC-257 melanoma was greater than 100 µM.

Consider `Cc1cccc(NC(=O)CC#N)c1Cl`, for which the TGI in the assay with DLD-1 colon, in the assay with M14 melanoma, in the assay with SNB-19 CNS, in the assay on HCT-15 colon, in the assay with SF-268 CNS and in the assay on UACC-257 melanoma was greater than 100 µM in each case. The TGI with KM20L2 colon is greater than 100 µM.

The term GI50 denotes the concentration giving 50% growth inhibition. With `O=C([O-])c1ccccc1Nc1ccccc1[O-].[Ni+3].[OH3+].[OH3+].[OH3+]`, the GI50 with HCC-2998 colon, with DLD-1 colon, in the assay on M14 melanoma, in the assay on SNB-19 CNS, with RXF 393 renal and with HCT-15 colon was greater than 100 µM throughout. Besides, the GI50 in the assay with OVCAR-5 ovarian, in the assay on SF-268 CNS and in the assay with UACC-257 melanoma was greater than 100 µM throughout. In addition, the TGI in the assay on HCC-2998 colon, in the assay on DLD-1 colon, in the assay with M14 melanoma, in the assay with SNB-19 CNS, with RXF 393 renal and in the assay with HCT-15 colon was greater than 100 µM throughout. Further, the TGI with OVCAR-5 ovarian, in the assay on SF-268 CNS and with UACC-257 melanoma was greater than 100 µM in each case.

Consider `CCSc1nc2n(c(=S)n1)CCN2C`, for which the TGI in the assay on HCC-2998 colon turned out to be 30.3 µM; with M14 melanoma it was 31.5 µM; in the assay on SNB-19 CNS, 37.8 µM; in the assay with RXF 393 renal, 23.7 µM; with HCT-15 colon it was 40.6 µM; in the assay with OVCAR-5 ovarian, 42.7 µM. Moreover, the total growth inhibition concentration (TGI) was determined as 65.8 µM in the assay on SF-268 CNS, 25.5 µM in the assay on UACC-257 melanoma and 52.9 µM in the assay on KM20L2 colon.

`NC[C@@](O)(c1ccc(Cl)cc1)c1ccc(-c2cn[nH]c2)cc1`: the GI50 with HCC-2998 colon is greater than 100 µM; with M14 melanoma, 2.34 µM; in the assay with SNB-19 CNS, 3.75 µM and 1.82 µM; in the assay on RXF 393 renal, 0.298 µM and 0.328 µM; with HCT-15 colon, 0.867 µM; with OVCAR-5 ovarian it was 8.67 µM. For the same compound, the GI50 was 1.24 µM and 1.28 µM in the assay with SF-268 CNS; 1.7 µM in the assay with UACC-257 melanoma. In addition, the total growth inhibition concentration (TGI) was greater than 100 µM with HCC-2998 colon; 5.98 µM in the assay on M14 melanoma; 2.51 µM and 2.05 µM with RXF 393 renal; 2.7 µM in the assay with HCT-15 colon; greater than 10 µM in the assay on OVCAR-5 ovarian; greater than 100 µM in the assay on SF-268 CNS. In the assay on UACC-257 melanoma, this compound came in with a TGI of 4.57 µM.

As for `CCCN1CCN(c2ccc3nc(-c4ccc5nc(-c6ccc(OCC)c(OCC)c6)[nH]c5c4)[nH]c3c2)CC1`, the GI50 is 0.533 µM in the assay on HCC-2998 colon; 0.195 µM in the assay on M14 melanoma; 0.616 µM in the assay on SNB-19 CNS; 0.27 µM in the assay with RXF 393 renal; 1.87 µM with HCT-15 colon; 1.67 µM in the assay with OVCAR-5 ovarian. Besides, the GI50 in the assay on SF-268 CNS was 1.6 µM; in the assay on UACC-257 melanoma, 0.64 µM. For the same compound, the TGI in the assay on HCC-2998 colon came out at 1.16 µM; in the assay on M14 melanoma, 1.39 µM; with SNB-19 CNS it was 1.98 µM; with RXF 393 renal, 0.83 µM; with HCT-15 colon, 10.3 µM; with OVCAR-5 ovarian, 4.32 µM. Further, the values for the TGI in the assay with SF-268 CNS and with UACC-257 melanoma were 6.1 µM and 2.47 µM, respectively.

`C[n+]1ccc(-c2c3nc(c(-c4ccc5c(ccc[n+]5C)c4)c4ccc([nH]4)c(-c4cc[n+](C)cc4)c4nc(c(-c5ccc6c(ccc[n+]6C)c5)c5ccc2[nH]5)C=C4)C=C3)cc1`: the GI50 in the assay with HCC-2998 colon is 49.7 µM; with M14 melanoma, greater than 50 µM; in the assay with SNB-19 CNS, 24.2 µM; with RXF 393 renal, 13.9 µM; in the assay with HCT-15 colon it was greater than 50 µM; in the assay with OVCAR-5 ovarian, greater than 50 µM. Moreover, the GI50 was greater than 50 µM with SF-268 CNS and 12.9 µM in the assay on UACC-257 melanoma. Besides, the concentration for total growth inhibition (TGI) in the assay with HCC-2998 colon, in the assay with M14 melanoma, in the assay on SNB-19 CNS, in the assay on RXF 393 renal, in the assay on HCT-15 colon and with OVCAR-5 ovarian was greater than 50 µM each time. The figures for the TGI in the assay with SF-268 CNS and in the assay on UACC-257 melanoma were greater than 50 µM and 48.5 µM, respectively.

On to `O=C(Nc1ccc(Br)cc1F)c1cc(Br)ccc1O`, for which the GI50 with HCC-2998 colon is 2.87 µM; in the assay with M14 melanoma, 0.713 µM; in the assay with SNB-19 CNS it was 0.502 µM; in the assay with RXF 393 renal it was 0.661 µM; in the assay with HCT-15 colon it was 0.731 µM; with OVCAR-5 ovarian, 2.97 µM. In addition, the GI50 in the assay with SF-268 CNS was 0.716 µM; in the assay with UACC-257 melanoma it was 0.829 µM. The TGI in the assay with HCC-2998 colon amounted to 10.8 µM; in the assay with M14 melanoma, 5.48 µM; in the assay with SNB-19 CNS, 27.9 µM; in the assay with RXF 393 renal, 3.33 µM; in the assay with HCT-15 colon, 7.32 µM; in the assay with OVCAR-5 ovarian, 33.3 µM. For the same compound, the TGI was determined as 11.6 µM with SF-268 CNS and 5.34 µM in the assay on UACC-257 melanoma.

For the compound `Cc1ccc(S(=O)(=O)n2cc(-c3nnnn3-c3ccc(Cl)cc3)c(=O)c3ccccc32)cc1`, the GI50 with HCC-2998 colon is greater than 100 µM; in the assay with M14 melanoma it was 49.5 µM; in the assay with SNB-19 CNS, greater than 100 µM; in the assay on RXF 393 renal, 29.6 µM; with HCT-15 colon it was greater than 100 µM; in the assay on OVCAR-5 ovarian, greater than 100 µM. Further, the GI50 in the assay with SF-268 CNS and with UACC-257 melanoma was greater than 100 µM throughout. Also, the TGI with HCC-2998 colon, in the assay with M14 melanoma, with SNB-19 CNS, in the assay on RXF 393 renal, in the assay on HCT-15 colon and in the assay with OVCAR-5 ovarian was greater than 100 µM each time. The TGI with SF-268 CNS and in the assay with UACC-257 melanoma was greater than 100 µM in each case.

With `COc1cc2c3c(c4c5ccccc5[nH]c4c2c(OC)c1OC)C(=O)N(CCN1CCCCC1)C3=O`, the GI50 was 1.32 µM in the assay on HCC-2998 colon; 1.82 µM in the assay with M14 melanoma; 1.05 µM in the assay on SNB-19 CNS; 0.502 µM in the assay with RXF 393 renal; 0.498 µM in the assay on HCT-15 colon; 1.29 µM in the assay with OVCAR-5 ovarian. In addition, the GI50 in the assay with SF-268 CNS is 1.15 µM; in the assay with UACC-257 melanoma it was 2.79 µM. In addition, the total growth inhibition concentration (TGI) came to 3.45 µM with HCC-2998 colon; 4.25 µM with M14 melanoma; 2.42 µM in the assay with SNB-19 CNS; 1.89 µM in the assay with RXF 393 renal; 2.07 µM in the assay on HCT-15 colon; 3.05 µM in the assay with OVCAR-5 ovarian. Also, the TGI came out at 2.96 µM in the assay with SF-268 CNS and 9.62 µM in the assay with UACC-257 melanoma.

Source of the values: PubChem BioAssay (NCI).
